Results reported in patent US20230365556A1, “N-ACYL AMINO ACID COMPOUNDS AND METHODS OF USE” (Pliant Therapeutics, Inc., priority 2016, published 2023).

Key:
[1] = target: αvβ1 integrin (αvβ1 expressing CHO cells) (Homo sapiens (Human), UniProt P05556+P06756); assay: Cell adhesion assay: inhibition of αvβ1 expressing CHO cells attaching to TGFβ1LAP; type: cell-based; settings: 1 h at 37° C., crystal violet absorbance 595 nm, read-out: αvβ1 Inhibition IC50 (nM)-range
Summary of the method: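 Plates coated with 2 ug/ml TGFβ1LAP and blocked with 2% BSA; cells (1.0×10^6 cells/ml in DMEM) incubated with compound 1 hour at 37° C. Non-adherent cells removed by centrifugation; adherent cells stained with crystal violet, absorbance 595 nm, IC50 by four-parameter non-linear regression.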

[2] = target: recombinant human integrin αvβ1 (Homo sapiens (Human), UniProt P05556+P06756); assay: Solid phase integrin αvβ1 binding assay (fibronectin); settings: recombinant human integrin αvβ1 coated plate, recombinant fibronectin 2 ug/ml, 2 hours at 25° C., read-out: αvβ1 Inhibition IC50 (nM)-range
Experimental: Example B2—Solid Phase Integrin αvβ1 Binding Assay
Microplates were coated with recombinant human integrin αvβ1 (2 ug/ml) in PBS (100 ul/well 4° C., overnight). The coating solution was removed, washed with PBS. Plate was blocked with 200 ul/well of Block Buffer (2% BSA in PBS) at 37° C. for 1 h. Dilutions of testing compounds and recombinant fibronectin (2 ug/ml) in binding and washing buffer (50 mM Tris-HCl, ph7.5; 0.1% BSA, 1 mM MnCl2; NaCl 150 mM; 0.02% Tween-20; 1 mM CaCl2); 1 mM MgCl2) were added. The plate was incubated for 2 hours at 25° C., washed, and incubated for 1 hour with Biotin-Anti-fibronectin. Bound antibody was detected by peroxidase-conjugated streptavidin. The IC50 values for testing compounds were calculated by a four-parameter logistic regression.
The compounds tested were compound samples prepared according to procedures described in the Synthetic Examples section, with the stereochemical purity as indicated in the Examples. The compounds tested were predominantly S-configuration at the alpha carbon of the amino acid scaffold, except for compounds 123, 124, and 125 which were predominantly R-configuration at the alpha carbon of the amino acid scaffold.

Chain of recombinant human integrin αvβ1 (P06756 31-889): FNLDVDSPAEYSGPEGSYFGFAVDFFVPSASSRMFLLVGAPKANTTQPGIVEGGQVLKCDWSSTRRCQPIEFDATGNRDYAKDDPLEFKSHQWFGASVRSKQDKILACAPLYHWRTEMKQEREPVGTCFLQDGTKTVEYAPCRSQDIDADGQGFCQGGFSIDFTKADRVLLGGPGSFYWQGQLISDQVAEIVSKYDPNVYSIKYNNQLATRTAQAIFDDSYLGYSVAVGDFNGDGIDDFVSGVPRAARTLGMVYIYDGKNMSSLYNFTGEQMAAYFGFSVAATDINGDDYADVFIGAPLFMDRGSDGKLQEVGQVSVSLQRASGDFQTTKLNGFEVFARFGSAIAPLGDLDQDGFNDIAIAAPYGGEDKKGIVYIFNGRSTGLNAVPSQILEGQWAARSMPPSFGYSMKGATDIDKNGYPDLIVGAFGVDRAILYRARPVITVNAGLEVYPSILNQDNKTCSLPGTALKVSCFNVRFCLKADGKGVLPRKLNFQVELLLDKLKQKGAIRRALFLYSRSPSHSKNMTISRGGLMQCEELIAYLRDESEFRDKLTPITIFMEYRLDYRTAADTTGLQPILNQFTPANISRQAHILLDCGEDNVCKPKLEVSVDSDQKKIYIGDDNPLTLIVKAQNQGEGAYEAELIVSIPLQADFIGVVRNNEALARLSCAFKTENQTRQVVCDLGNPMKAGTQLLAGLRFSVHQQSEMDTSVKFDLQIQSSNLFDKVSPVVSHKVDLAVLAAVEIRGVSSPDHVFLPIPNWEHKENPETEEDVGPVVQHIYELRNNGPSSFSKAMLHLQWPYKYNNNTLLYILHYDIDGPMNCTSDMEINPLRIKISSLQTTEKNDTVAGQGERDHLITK
Chain of recombinant human integrin αvβ1 (P06756 891-992 partner): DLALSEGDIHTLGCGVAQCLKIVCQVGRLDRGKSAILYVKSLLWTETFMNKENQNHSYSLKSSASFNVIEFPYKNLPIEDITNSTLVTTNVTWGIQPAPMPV
Chain of recombinant human integrin αvβ1 (P05556 21-728): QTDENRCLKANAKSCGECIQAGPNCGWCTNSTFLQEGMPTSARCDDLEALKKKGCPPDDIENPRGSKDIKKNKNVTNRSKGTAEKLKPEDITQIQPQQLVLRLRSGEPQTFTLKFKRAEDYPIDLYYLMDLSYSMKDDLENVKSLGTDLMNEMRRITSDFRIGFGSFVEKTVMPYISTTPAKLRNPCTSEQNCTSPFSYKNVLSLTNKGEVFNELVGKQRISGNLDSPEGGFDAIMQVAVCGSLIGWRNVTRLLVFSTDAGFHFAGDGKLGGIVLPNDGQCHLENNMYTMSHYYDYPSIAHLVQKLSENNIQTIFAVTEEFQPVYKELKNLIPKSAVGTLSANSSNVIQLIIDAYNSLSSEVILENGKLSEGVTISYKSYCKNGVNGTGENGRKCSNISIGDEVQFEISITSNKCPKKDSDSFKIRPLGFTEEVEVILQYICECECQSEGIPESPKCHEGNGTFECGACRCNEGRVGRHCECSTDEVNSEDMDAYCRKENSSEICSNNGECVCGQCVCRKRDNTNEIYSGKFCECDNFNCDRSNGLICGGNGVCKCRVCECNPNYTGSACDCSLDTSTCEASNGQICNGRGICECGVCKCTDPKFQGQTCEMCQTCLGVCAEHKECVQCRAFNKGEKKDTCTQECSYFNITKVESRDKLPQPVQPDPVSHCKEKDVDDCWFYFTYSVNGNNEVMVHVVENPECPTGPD
Chain of αvβ1 integrin (αvβ1 expressing CHO cells) (P06756 31-889): as the sequence (P06756 31-889) above
Chain of αvβ1 integrin (αvβ1 expressing CHO cells) (P06756 891-1048 partner): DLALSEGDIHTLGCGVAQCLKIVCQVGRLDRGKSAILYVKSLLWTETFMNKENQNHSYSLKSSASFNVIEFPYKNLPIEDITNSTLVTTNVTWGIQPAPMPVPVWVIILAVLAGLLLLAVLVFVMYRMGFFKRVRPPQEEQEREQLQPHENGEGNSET
Chain of αvβ1 integrin (αvβ1 expressing CHO cells) (P05556 21-798): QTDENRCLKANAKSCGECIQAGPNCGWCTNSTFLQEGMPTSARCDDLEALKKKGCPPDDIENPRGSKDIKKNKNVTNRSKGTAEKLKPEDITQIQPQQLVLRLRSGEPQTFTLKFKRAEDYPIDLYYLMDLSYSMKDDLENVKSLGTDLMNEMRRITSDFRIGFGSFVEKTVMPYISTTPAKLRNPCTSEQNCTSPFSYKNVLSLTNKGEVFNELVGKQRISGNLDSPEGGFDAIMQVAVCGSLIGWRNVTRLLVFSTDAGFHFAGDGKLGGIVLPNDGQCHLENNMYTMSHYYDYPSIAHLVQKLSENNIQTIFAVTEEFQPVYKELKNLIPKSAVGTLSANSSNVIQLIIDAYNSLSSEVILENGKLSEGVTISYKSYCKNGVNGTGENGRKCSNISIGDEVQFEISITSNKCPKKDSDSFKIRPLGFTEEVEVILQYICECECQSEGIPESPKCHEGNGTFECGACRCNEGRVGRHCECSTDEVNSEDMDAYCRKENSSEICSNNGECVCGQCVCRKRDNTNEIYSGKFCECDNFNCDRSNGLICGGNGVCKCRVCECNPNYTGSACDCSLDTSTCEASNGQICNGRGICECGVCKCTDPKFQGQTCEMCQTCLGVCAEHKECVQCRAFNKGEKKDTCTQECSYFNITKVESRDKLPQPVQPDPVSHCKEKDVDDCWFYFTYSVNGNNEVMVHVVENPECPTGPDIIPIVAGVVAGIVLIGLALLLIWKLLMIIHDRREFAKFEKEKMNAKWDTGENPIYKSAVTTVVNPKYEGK

Row | IC50 [1] [nM] | IC50 [2] [nM] | SMILES
1 |  | > 1000 | Cn1cc(-c2cccc(C(=O)N[C@H](CCCCCCCc3ccc4c(n3)NCCC4)C(=O)O)c2)cn1 [Compound 123]
2 |  | 50 to 250 | O=C(N[C@@H](CCCCCCCc1ccc2c(n1)NCCC2)C(=O)O)c1cccc(-c2cncs2)c1 [Compound 126]
3 |  | < 50 | O=C(N[C@@H](CCCCCCCc1ccc2c(n1)NCCC2)C(=O)O)c1cc(F)cc(C(F)(F)F)c1 [Compound 122]
4 |  | > 1000 | O=C(N[C@H](CCCCCCCc1ccc2c(n1)NCCC2)C(=O)O)c1cc(F)cc(C(F)(F)F)c1 [Compound 125]
5 |  | < 50 | O=C(N[C@@H](CCCCCCCc1ccc2c(n1)NCCC2)C(=O)O)c1cccc(F)c1Cl [Compound 121]

Continued, compound first:

Row | SMILES | IC50 [1] [nM] | IC50 [2] [nM]
6 | Cn1ncc2ccc(C(=O)NC(CCCCCCCc3ccc4c(n3)NCCC4)C(=O)O)cc21 (stereo not shown) [Compound 81, 2-(1-methyl-1H-indazole-6-carboxamido)-9-(5,6,7,8-tetrahydro-1,8-naphthyridin-2-yl)nonanoic acid] | 50 to 250 | < 50
7 | COc1cccc(C(=O)NC(CCCCCCCc2ccc3c(n2)NCCC3)C(=O)O)c1 (stereo not shown) [Compound 93] |  | < 50
8 | O=C(N[C@@H](CCCCCCCc1ccc2c(n1)NCCC2)C(=O)O)c1cc(OC(F)(F)F)ccc1Cl [Compound 118] |  | < 50
9 | O=C(NC(CCCCCCCc1ccc2c(n1)NCCC2)C(=O)O)c1ccccc1F (stereo not shown) [Compound 95] |  | < 50
10 | O=C(NC(CCCCCCCc1ccc2c(n1)NCCC2)C(=O)O)c1ccc(Cl)cc1 (stereo not shown) [Compound 87] |  | < 50
11 | Cc1cc(C)n(-c2cccc(C(=O)N[C@@H](CCCCCCCc3ccc4c(n3)NCCC4)C(=O)O)c2)n1 [Compound 119] |  | < 50
12 | O=C(O)C(CCCCCCCc1ccc2c(n1)NCCC2)NC(=O)N1CCn2c(nnc2C(F)(F)F)C1 (stereo not shown) [Compound 97] |  | < 50
13 | N#Cc1ccc(C(=O)NC(CCCCCCCc2ccc3c(n2)NCCC3)C(=O)O)cc1 (stereo not shown) [Compound 90] |  | < 50
14 | COc1ccc(C(=O)NC(CCCCCCCc2ccc3c(n2)NCCC3)C(=O)O)cc1 (stereo not shown) [Compound 89] |  | < 50
15 | O=C(NC(CN1CCC(OCCCc2ccc3c(n2)NCCC3)C1)C(=O)O)c1c(Cl)cccc1Cl (stereo not shown) [Compound 75, 2-(2,6-dichlorobenzamido)-3-(3-(3-(5,6,7,8-tetrahydro-1,8-naphthyridin-2-yl)propoxy)pyrrolidin-1-yl)propanoic acid] |  | 250 to 1000
